# Laboratory results from article PMC6019134, “1,2,6-Thiadiazinones as Novel Narrow Spectrum Calcium/Calmodulin-Dependent Protein Kinase Kinase 2 (CaMKK2) Inhibitors” (Molecules : A Journal of Synthetic Chemistry and Natural …, 2018).
# Legend:
# Assay in all cases: DSF thermal shift, kinase panel
# Assay type in all cases: binding
# Conditions in all cases: 10 μM compound
# BRAFA = target: T1, BRAFA (Homo sapiens, UniProt P15056)
# T1 construct: purchased in-house (home-made panel, SGC-style construct names)
# T1 sequence (P15056 whole entry): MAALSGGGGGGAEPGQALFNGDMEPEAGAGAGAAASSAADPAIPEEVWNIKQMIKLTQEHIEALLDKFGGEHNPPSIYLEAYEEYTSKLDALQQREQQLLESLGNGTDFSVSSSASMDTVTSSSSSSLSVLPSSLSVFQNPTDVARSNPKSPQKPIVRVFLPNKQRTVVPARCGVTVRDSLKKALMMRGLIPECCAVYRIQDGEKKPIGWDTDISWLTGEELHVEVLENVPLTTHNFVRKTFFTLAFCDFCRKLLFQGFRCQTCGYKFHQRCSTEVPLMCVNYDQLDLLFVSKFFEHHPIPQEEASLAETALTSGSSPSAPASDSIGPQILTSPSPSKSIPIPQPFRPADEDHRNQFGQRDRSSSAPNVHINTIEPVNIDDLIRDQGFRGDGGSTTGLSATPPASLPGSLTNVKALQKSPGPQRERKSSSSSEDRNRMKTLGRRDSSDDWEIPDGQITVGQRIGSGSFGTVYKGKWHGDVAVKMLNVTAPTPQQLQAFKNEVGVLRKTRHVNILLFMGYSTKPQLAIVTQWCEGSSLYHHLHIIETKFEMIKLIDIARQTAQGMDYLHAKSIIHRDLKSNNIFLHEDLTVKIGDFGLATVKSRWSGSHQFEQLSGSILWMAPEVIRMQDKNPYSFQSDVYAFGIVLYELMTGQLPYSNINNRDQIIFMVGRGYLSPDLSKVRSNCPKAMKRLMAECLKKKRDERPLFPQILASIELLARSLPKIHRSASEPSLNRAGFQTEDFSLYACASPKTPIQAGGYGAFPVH
# How it was run: (§1)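 Thermal denaturation of 1 µM kinase with 10 µM compound present, monitored by dye fluorescence across 25–95 °C; shift in Tm relative to 0.2% DMSO reference.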
# BMP2K = target: T2, BMP2K (Homo sapiens, UniProt Q9NSY1)
# T2 construct: purchased in-house (home-made panel, SGC-style construct names)
# T2 sequence (Q9NSY1 whole entry): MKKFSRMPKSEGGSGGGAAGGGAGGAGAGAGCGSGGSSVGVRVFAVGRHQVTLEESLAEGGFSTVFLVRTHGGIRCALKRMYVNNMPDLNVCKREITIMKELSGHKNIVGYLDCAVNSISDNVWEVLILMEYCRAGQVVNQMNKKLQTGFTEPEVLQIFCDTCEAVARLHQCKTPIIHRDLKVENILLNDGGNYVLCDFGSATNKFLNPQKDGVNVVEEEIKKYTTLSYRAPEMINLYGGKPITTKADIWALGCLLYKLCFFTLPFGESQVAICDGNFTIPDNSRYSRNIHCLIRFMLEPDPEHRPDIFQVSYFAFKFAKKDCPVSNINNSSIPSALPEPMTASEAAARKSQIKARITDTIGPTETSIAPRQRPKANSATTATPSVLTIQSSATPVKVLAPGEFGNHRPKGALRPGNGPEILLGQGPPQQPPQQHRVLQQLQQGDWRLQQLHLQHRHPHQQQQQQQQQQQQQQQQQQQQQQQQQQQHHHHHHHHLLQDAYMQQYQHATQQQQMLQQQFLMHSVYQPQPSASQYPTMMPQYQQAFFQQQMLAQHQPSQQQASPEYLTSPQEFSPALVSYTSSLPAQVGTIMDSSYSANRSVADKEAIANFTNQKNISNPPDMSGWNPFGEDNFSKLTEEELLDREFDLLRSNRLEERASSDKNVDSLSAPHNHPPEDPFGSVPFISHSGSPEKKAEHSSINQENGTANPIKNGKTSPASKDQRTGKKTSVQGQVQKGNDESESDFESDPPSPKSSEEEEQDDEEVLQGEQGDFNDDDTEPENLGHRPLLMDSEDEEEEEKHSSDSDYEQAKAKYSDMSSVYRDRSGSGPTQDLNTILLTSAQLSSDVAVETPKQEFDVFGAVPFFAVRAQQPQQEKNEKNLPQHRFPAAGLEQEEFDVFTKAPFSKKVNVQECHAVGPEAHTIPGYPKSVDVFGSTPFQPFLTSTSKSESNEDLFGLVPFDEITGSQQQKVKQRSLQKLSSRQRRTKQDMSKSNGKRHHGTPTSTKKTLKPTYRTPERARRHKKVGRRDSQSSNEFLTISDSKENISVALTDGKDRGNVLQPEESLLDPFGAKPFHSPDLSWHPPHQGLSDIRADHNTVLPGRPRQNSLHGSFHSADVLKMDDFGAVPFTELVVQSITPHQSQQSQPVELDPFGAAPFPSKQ
# How it was run: as §1
# CHEK2 = target: T3, CHEK2 (Homo sapiens, UniProt O96017)
# T3 construct: purchased in-house (home-made panel, SGC-style construct names)
# T3 sequence (O96017 whole entry): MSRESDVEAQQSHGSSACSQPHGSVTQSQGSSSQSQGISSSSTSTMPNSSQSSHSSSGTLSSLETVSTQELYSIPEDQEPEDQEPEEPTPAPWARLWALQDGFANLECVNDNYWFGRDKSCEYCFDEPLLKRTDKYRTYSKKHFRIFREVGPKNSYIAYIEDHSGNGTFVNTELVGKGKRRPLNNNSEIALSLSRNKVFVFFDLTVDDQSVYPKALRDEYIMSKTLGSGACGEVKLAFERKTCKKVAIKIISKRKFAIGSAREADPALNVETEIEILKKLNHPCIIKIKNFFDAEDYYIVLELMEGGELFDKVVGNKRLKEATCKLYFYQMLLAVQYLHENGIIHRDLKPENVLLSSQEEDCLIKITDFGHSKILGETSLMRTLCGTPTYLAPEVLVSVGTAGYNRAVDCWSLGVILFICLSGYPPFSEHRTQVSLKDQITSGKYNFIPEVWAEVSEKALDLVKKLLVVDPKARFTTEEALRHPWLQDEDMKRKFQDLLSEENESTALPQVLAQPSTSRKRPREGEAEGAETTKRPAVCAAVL
# How it was run: as §1
# GAKA = target: T4, GAKA (Homo sapiens, UniProt O14976)
# T4 construct: purchased in-house (home-made panel, SGC-style construct names)
# T4 sequence (O14976 1-1311): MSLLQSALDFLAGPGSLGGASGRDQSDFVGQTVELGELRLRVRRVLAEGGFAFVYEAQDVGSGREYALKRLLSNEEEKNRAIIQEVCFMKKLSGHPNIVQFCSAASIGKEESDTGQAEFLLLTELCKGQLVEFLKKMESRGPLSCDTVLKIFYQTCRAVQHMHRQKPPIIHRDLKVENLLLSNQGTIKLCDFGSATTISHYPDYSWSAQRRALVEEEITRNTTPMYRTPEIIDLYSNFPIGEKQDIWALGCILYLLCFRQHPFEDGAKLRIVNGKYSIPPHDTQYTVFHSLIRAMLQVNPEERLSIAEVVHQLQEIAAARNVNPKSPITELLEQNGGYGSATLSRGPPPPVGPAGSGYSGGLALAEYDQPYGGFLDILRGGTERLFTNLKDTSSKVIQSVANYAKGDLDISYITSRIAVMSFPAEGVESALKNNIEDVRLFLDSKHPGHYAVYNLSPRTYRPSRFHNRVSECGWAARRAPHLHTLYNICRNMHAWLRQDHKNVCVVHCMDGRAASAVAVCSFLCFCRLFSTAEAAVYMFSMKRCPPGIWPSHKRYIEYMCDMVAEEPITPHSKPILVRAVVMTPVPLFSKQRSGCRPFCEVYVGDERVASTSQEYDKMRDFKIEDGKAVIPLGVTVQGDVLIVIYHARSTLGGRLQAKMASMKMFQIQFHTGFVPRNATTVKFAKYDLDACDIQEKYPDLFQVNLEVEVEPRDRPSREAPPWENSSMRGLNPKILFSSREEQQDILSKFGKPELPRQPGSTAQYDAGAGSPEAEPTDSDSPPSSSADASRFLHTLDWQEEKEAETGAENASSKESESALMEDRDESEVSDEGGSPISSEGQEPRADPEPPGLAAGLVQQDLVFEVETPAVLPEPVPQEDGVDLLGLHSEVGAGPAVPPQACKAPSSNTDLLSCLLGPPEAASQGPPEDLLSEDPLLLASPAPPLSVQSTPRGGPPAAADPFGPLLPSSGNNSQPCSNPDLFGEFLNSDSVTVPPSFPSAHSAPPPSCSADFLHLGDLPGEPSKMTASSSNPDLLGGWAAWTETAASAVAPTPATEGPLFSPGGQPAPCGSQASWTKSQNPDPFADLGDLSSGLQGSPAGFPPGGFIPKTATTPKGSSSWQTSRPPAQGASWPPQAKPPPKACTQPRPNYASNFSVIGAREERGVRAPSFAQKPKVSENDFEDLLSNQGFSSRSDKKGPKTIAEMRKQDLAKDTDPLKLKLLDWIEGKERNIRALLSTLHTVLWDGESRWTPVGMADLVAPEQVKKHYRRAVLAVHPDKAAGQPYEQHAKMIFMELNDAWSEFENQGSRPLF
# How it was run: as §1
Compound,ΔTm at 10 µM (BRAFA) [°C],ΔTm at 10 µM (BMP2K) [°C],ΔTm at 10 µM (CHEK2) [°C],ΔTm at 10 µM (GAKA) [°C]
"Cc1ccc(Nc2nsnc(Nc3cccc(C(N)=O)c3)c2=O)cc1O [Compound 1, 3-({5-[(3-Hydroxy-4-methylphenyl)amino]-4-oxo-4H-1,2,6-thiadiazin-3-yl}amino)benzamide]",-0.1,-0.4,0.6,-0.3
"Cc1ccc(Nc2nsnc(Nc3ccc(C(N)=O)cc3)c2=O)cc1O [Compound 2, 4-({5-[(3-Hydroxy-4-methylphenyl)amino]-4-oxo-4H-1,2,6-thiadiazin-3-yl}amino)benzamide]",0.2,-0.2,3.1,1.4
"Cc1ccc(Nc2nsnc(Nc3ccc4c(c3)CS(=O)(=O)C4)c2=O)cc1O [Compound 3, 3-[(2,2-Dioxido-1,3-dihydrobenzo[c]thiophen-5-yl)amino]-5-[(3-hydroxy-4-methylphenyl)amino]-4H-1,2,6-thiadiazin-4-one]",0.7,0.1,1.6,0
"CNC(=O)c1ccccc1Nc1nsnc(Nc2cccc(CS(C)(=O)=O)c2)c1=O [Compound 4, N-Methyl-2-([5-({3-[(methylsulfonyl)methyl]phenyl}amino)-4-oxo-4H-1,2,6-thiadiazin-3-yl]-amino}-benzamide]",0.1,-0.1,0.6,-0.4
"CNC(=O)c1ccccc1Nc1nsnc(Nc2ccc(N3CCOCC3)cc2)c1=O [Compound 5, N-Methyl-2-({5-[(4-morpholinophenyl)amino]-4-oxo-4H-1,2,6-thiadiazin-3-yl}amino)benzamide]",0.4,-0.1,0.8,-0.4
